# Test system: healthy adult examinees
# Experiment: HRIPT (Human repeated insult patch tests), skin accumulated stimulus
# Assay type: in vivo
# Details: for Number of examinees who exhibited ±, +, or ++ reactivity 5th: 5th patch; for Number of examinees who exhibited ±, +, or ++ reactivity 6th: 6th patch; for Number of examinees who exhibited ±, +, or ++ reactivity 7th: 7th patch; for Number of examinees who exhibited ±, +, or ++ reactivity 8th: 8th patch; for Number of examinees who exhibited ±, +, or ++ reactivity 9th: 9th patch; for Number of examinees who exhibited ±, +, or ++ reactivity 1st: 1st patch; for Number of examinees who exhibited ±, +, or ++ reactivity 2nd: 2nd patch; for Number of examinees who exhibited ±, +, or ++ reactivity 3rd: 3rd patch; for Number of examinees who exhibited ±, +, or ++ reactivity 4th: 4th patch
# Protocol: HRIPT (Human repeated insult patch tests) was conducted in order to identify skin accumulated stimulus of quercetin3-O-[3-O″-(E)-p-coumaroyl][β-D-glucopyranosyl-(1→3)-O-α-L-rhamnopyranosyl-(1→6)-O-β-D-glucopyranoside] and quercetin3-O-[3-O″-(E)-p-coumaroyl][α-L-rhamnopyranosyl-(1→6)-O-β-D-glucopyranoside]and to calculate the concentration range that can be used in skin.
# Specifically, 15 healthy adult examinees were randomly selected, and test compositions in which the compounds were respectively comprised in an amount of 0.5 wt. %, 1 wt. %, and 3 wt. % (the compositions for skin, comprising an emulsifying agent, a stabilizer, purified water, etc. in addition to the compounds) were dropped in the amount of 20 μl per chamber (IQ chamber, Epitest Ltd, Finland), and patched on the right site of the upper back of the examinees, and then, after 24 hours, the patch was replaced with a new patch. A total of 9 patches were conducted, three times a week for total 3 weeks, in such manner, the skin reactions before and after patch were examined every time, and the skin reactions until 48 hours after removing the final patch were observed, and the average reactivity was observed.
# The skin reaction was determined according to the criteria of International Contact Dermatitis Research Group (ICDRG). In the above table, “New Material 31” refers to quercetin3-O-[3-O″-(E)-p-coumaroyl][β-D-glucopyranosyl-(1→3)-O-α-L-rhamnopyranosyl-(1→6)-O-β-D-glucopyranoside], and “New Material 32” refers to quercetin3-O-[3-O″-(E)-p-coumaroyl][α-L-rhamnopyranosyl-(1→6)-O-β-D-glucopyranoside].
structure (smiles),measurement,setting,value
"C[C@@H]1O[C@@H](OC[C@H]2O[C@@H](Oc3c(-c4ccc(O)c(O)c4)oc4cc(O)cc(O)c4c3=O)[C@H](O)[C@@H](OC(=O)/C=C/c3ccc(O)cc3)[C@@H]2O)[C@H](O)[C@H](O[C@@H]2O[C@H](CO)[C@@H](O)[C@H](O)[C@H]2O)[C@H]1O [New Material 31, quercetin3-O-[3-O″-(E)-p-coumaroyl][β-D-glucopyranosyl-(1→3)-O-α-L-rhamnopyranosyl-(1→6)-O-β-D-glucopyranoside]]","Number of examinees who exhibited ±, +, or ++ reactivity 5th","1 wt.%, line 1 of 3 (±)",0 number
same,"Number of examinees who exhibited ±, +, or ++ reactivity 5th","1 wt.%, line 2 of 3 (+)",0 number
same,"Number of examinees who exhibited ±, +, or ++ reactivity 5th","1 wt.%, line 3 of 3 (++)",0 number
same,"Number of examinees who exhibited ±, +, or ++ reactivity 6th","1 wt.%, line 1 of 3 (±)",0 number
same,"Number of examinees who exhibited ±, +, or ++ reactivity 6th","1 wt.%, line 2 of 3 (+)",0 number
same,"Number of examinees who exhibited ±, +, or ++ reactivity 6th","1 wt.%, line 3 of 3 (++)",0 number
same,"Number of examinees who exhibited ±, +, or ++ reactivity 7th","1 wt.%, line 1 of 3 (±)",0 number
same,"Number of examinees who exhibited ±, +, or ++ reactivity 7th","1 wt.%, line 2 of 3 (+)",0 number
same,"Number of examinees who exhibited ±, +, or ++ reactivity 7th","1 wt.%, line 3 of 3 (++)",0 number
same,"Number of examinees who exhibited ±, +, or ++ reactivity 8th","1 wt.%, line 1 of 3 (±)",0 number
same,"Number of examinees who exhibited ±, +, or ++ reactivity 8th","1 wt.%, line 2 of 3 (+)",0 number
same,"Number of examinees who exhibited ±, +, or ++ reactivity 8th","1 wt.%, line 3 of 3 (++)",0 number
same,"Number of examinees who exhibited ±, +, or ++ reactivity 9th","1 wt.%, line 1 of 3 (±)",0 number
same,"Number of examinees who exhibited ±, +, or ++ reactivity 9th","1 wt.%, line 2 of 3 (+)",0 number
same,"Number of examinees who exhibited ±, +, or ++ reactivity 9th","1 wt.%, line 3 of 3 (++)",0 number
same,average reactivity,"3 wt.% in test composition, 9 patches, 15 examinees",0
same,"Number of examinees who exhibited ±, +, or ++ reactivity 1st","3 wt.%, line 1 of 3 (±)",0 number
same,"Number of examinees who exhibited ±, +, or ++ reactivity 1st","3 wt.%, line 2 of 3 (+)",0 number
same,"Number of examinees who exhibited ±, +, or ++ reactivity 1st","3 wt.%, line 3 of 3 (++)",0 number
same,"Number of examinees who exhibited ±, +, or ++ reactivity 2nd","3 wt.%, line 1 of 3 (±)",0 number
same,"Number of examinees who exhibited ±, +, or ++ reactivity 2nd","3 wt.%, line 2 of 3 (+)",0 number
same,"Number of examinees who exhibited ±, +, or ++ reactivity 2nd","3 wt.%, line 3 of 3 (++)",0 number
same,"Number of examinees who exhibited ±, +, or ++ reactivity 3rd","3 wt.%, line 1 of 3 (±)",0 number
same,"Number of examinees who exhibited ±, +, or ++ reactivity 3rd","3 wt.%, line 2 of 3 (+)",0 number
same,"Number of examinees who exhibited ±, +, or ++ reactivity 3rd","3 wt.%, line 3 of 3 (++)",0 number
same,"Number of examinees who exhibited ±, +, or ++ reactivity 4th","3 wt.%, line 1 of 3 (±)",0 number
same,"Number of examinees who exhibited ±, +, or ++ reactivity 4th","3 wt.%, line 2 of 3 (+)",0 number
same,"Number of examinees who exhibited ±, +, or ++ reactivity 4th","3 wt.%, line 3 of 3 (++)",0 number
same,"Number of examinees who exhibited ±, +, or ++ reactivity 5th","3 wt.%, line 1 of 3 (±)",0 number
same,"Number of examinees who exhibited ±, +, or ++ reactivity 5th","3 wt.%, line 2 of 3 (+)",0 number
same,"Number of examinees who exhibited ±, +, or ++ reactivity 5th","3 wt.%, line 3 of 3 (++)",0 number
same,"Number of examinees who exhibited ±, +, or ++ reactivity 6th","3 wt.%, line 1 of 3 (±)",0 number
same,"Number of examinees who exhibited ±, +, or ++ reactivity 6th","3 wt.%, line 2 of 3 (+)",0 number
same,"Number of examinees who exhibited ±, +, or ++ reactivity 6th","3 wt.%, line 3 of 3 (++)",0 number
same,"Number of examinees who exhibited ±, +, or ++ reactivity 7th","3 wt.%, line 1 of 3 (±)",0 number
same,"Number of examinees who exhibited ±, +, or ++ reactivity 7th","3 wt.%, line 2 of 3 (+)",0 number
same,"Number of examinees who exhibited ±, +, or ++ reactivity 7th","3 wt.%, line 3 of 3 (++)",0 number
same,"Number of examinees who exhibited ±, +, or ++ reactivity 8th","3 wt.%, line 1 of 3 (±)",0 number
same,"Number of examinees who exhibited ±, +, or ++ reactivity 8th","3 wt.%, line 2 of 3 (+)",0 number
same,"Number of examinees who exhibited ±, +, or ++ reactivity 8th","3 wt.%, line 3 of 3 (++)",0 number
same,"Number of examinees who exhibited ±, +, or ++ reactivity 9th","3 wt.%, line 1 of 3 (±)",0 number
same,"Number of examinees who exhibited ±, +, or ++ reactivity 9th","3 wt.%, line 2 of 3 (+)",0 number
same,"Number of examinees who exhibited ±, +, or ++ reactivity 9th","3 wt.%, line 3 of 3 (++)",0 number
